Measurements taken from article PMC10258794, “To Fold or Not to Fold: Diastereomeric Optimization of an α-Helical Antimicrobial Peptide” (Journal of Medicinal Chemistry, 2023).
Converted amounts (≈) assume the structure as drawn. Like-named read-outs stand apart in the source and are kept apart here.

What was measured:
[1] = tested on: Burkolderia cenocepacia; experiment: microbe, parasite or virus in culture; settings: for MIC Burkolderia cenocepacia: MDR strain, MH broth pH 7.4, 16–20 h, 37 °C; for MIC B. cenocepacia: supplementary CSV
Procedure: (§1) Antimicrobial activity was determined for all peptides on E. coli W3110, P. aeruginosa PAO1, A. baumannii ATCC19606, K. pneumoniae NCTC418, and methicillin-resistant S. aureus COL and for selected peptides on P. aeruginosa PA14 and the polymyxin B-resistant derivatives PA14 4.13, PA14 4.18, and PA14 2P4 as well as the clinical isolates ZEM-1A and ZEM9A, K. pneumoniae OXA-48, Enterobacter cloacae, Stenotrophomonas maltophilia, B. cenocepacia, and Staphylococus epidermis. To determine the MIC, the broth microdilution method was used.[75] A single bacterial colony was grown in LB medium overnight at 37 °C and 180 rpm shaking. The compounds were prepared as stock solutions of 2 mg/mL in sterilized milliQ deionized water, added to the first well of 96-well sterile, polypropylene round-bottom microtiter plates (TPP, untreated, Corning Incorporated, Kennebunk, USA), and diluted serially by 1/2. […] The bacterial inoculum was prepared by measuring the absorbance of the overnight culture, which was diluted to concentration of the bacteria was quantified by measuring absorbance at 600 nm and diluted to an OD600 of 0.022 in MH medium pH 7.4 (Sigma-Aldrich, Buchs, Switzerland). The sample solutions (150 μL) were mixed with 4 μL of diluted bacterial suspension with a final inoculation of about 5 × 10^5 CFU. For each test, two columns of the plate were kept for sterility control (MH medium only) and growth control (MH medium with bacterial inoculum, no compound). […] The plates were incubated at 37 °C for 16–20 h under static conditions. 15 μL of 3-(4,5-dimethylthiazol-2-yl)-2,5-diphenyltetrazolium bromide (MTT)[76] (1 mg/mL in sterilized milliQ deionized water) was added to each well, and the plates were incubated at room temperature until MTT staining was completed. The MIC was defined as the lowest concentration of the dendrimer that inhibits the visible growth of the tested bacteria (yellow) with the unaided eye.

[2] = tested on: Enterobacter cloacae; experiment: microbe, parasite or virus in culture; settings: pH 7.4
Procedure: as §1

[3] = tested on: P. aeruginosa PA14; experiment: microbe, parasite or virus in culture; settings: for MIC PA14: MH broth pH 7.4, 16–20 h, 37 °C; for MIC P. aeruginosa PA14: supplementary CSV
Procedure: as §1

[4] = tested on: P. aeruginosa ZEM-1A; experiment: microbe, parasite or virus in culture; settings: pH 7.4
Procedure: as §1

[5] = tested on: PA14 2P4 (pmrB); experiment: microbe, parasite or virus in culture; settings: supplementary CSV
Procedure: as §1

[6] = tested on: PA14 4.13 (phoQ); experiment: microbe, parasite or virus in culture; settings: supplementary CSV
Procedure: as §1

[7] = tested on: PA14 4.18 (pmrB); experiment: microbe, parasite or virus in culture; settings: supplementary CSV
Procedure: as §1

[8] = tested on: P. aeruginosa ZEM9A; experiment: microbe, parasite or virus in culture; type: cell-based, Pseudomonas aeruginosa; settings: pH 7.4
Procedure: as §1

[9] = tested on: K. pneumoniae Oxa-48; experiment: MIC broth microdilution, K. pneumoniae Oxa-48; type: cell-based, Klebsiella pneumoniae; settings: MDR strain; MH broth pH 7.4, 16–20 h, 37 °C
Procedure: as §1

[10] = tested on: Stenotrophomonas maltophilia; experiment: microbe, parasite or virus in culture; type: cell-based; settings: pH 7.4
Procedure: as §1

[11] = tested on: Staphylococcus epidermis; experiment: MIC broth microdilution, Staphylococcus epidermis; type: cell-based; settings: pH 7.4
Procedure: as §1

[12] = tested on: HEK293 cells; experiment: Alamar blue cytotoxicity, HEK293; type: cell-based, human; settings: 24 h, mean ± SD, n = 3, read-out: Toxicity on HEK293 cells
Procedure: (§2) The A549 human lung adenocarcinoma cells are derived from a patient and were kindly given to us by Dr. Georgia Konstatinidou (Pharmacology Institute, Bern University). HEK293T cells were obtained from ATCC (CRL-11268). A549 and HEK293 were cultured in an incubator at 37 °C with 5% CO2 in RPMI-1640 (Gibco) and DMEM (Gibco) containing 10% fetal bovine serum (Thermo Fisher), 100 I.U./mL penicillin, and 100 μg/mL streptomycin (Gibco).
(§3) The viability of the cells was assessed with an AlamarBlue assay (ThermoFisher). Cells were seeded into 96-well plates, 4000 cells/well (HEK293) and 8000 cells/well (A549), the day before the experiment. Cells were then treated with the increasing concentration of the compound and incubated for 24 h at 37 °C in the presence of 5% CO2. The next day, the medium was removed and replaced by a 10% AlamarBlue solution in full growth medium (DMEM or RPMI-1640). The cells were incubated for 3–5 h at 37 °C with 5% CO2 in a humidified atmosphere. The fluorescence was then measured on a Tecan Infinite M1000 Pro plate reader at λex 560 nm and λem 590 nm. The value was normalized according to the untreated cells.

[13] = tested on: A549 cells; experiment: Alamar blue cytotoxicity, A549; type: cell-based, human; settings: 24 h, mean ± SD, n = 3, read-out: Toxicity on A549 lung cancern cells
Procedure: as §2, §3

[14] = tested on: A. baumannii ATCC19606
How it was run: (§4)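 A colony was grown overnight in LB at 37 °C, diluted in MH medium pH 7.4 to OD600 0.022 and added to 1/2 serial dilutions of compound (final about 5 × 10^5 CFU).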

[15] = tested on: E. coli W3110; settings: MH broth pH 7.4, 16–20 h, 37 °C
How it was run: as §4

[16] = tested on: K. pneumoniae NCTC418
How it was run: as §4

[17] = tested on: P. aeruginosa PAO1
How it was run: as §4

[18] = tested on: S. aureus COL MRSA; settings: for MIC S. aureus COL MRSA: MH broth pH 7.4, 16–20 h, 37 °C; for MIC S. aureus COL: supplementary CSV, ranges of Table 1 given as one number
How it was run: as §4

[19] = tested on: S. aureus Newman; settings: for MIC S. aureus Newman: MH broth pH 7.4, 16–20 h, 37 °C; for MIC S. aureus Newmann: supplementary CSV
[20] = MH broth pH 7.4, 16–20 h, 37 °C
[21] = supplementary CSV, ranges of Table 1 given as one number

Compound	MIC Burkolderia cenocepacia [1] [µg/mL]	MIC Enterobacter cloacae [2] [µg/mL]	MIC PA14 [3] [µg/mL]	MIC P. aeruginosa PA14 [3] [µg/mL]	MIC ZEM-1A [4] [µg/mL]	MIC P. aeruginosaPA14 2P4 [5] [µg/mL]	MIC P. aeruginosa PA14 4.13 [6] [µg/mL]	MIC P. aeruginosa PA14 4.18 [7] [µg/mL]	MIC K. pneumoniae Oxa-48 [9] [µg/mL]	MIC Stenotrophomonas maltophilia [10] [µg/mL]	MIC Staphylococcus epidermis [11] [µg/mL]	IC50 [12] [µM]	IC50 [13] [µM]	MIC A. baumannii ATCC19606 [14, 20] [µg/mL]	MIC A. baumannii ATCC19606 [14, 21] [µg/mL]	MIC E. coli W3110 [15] [µg/mL]	MIC K. pneumoniae NCTC418 [16, 20] [µg/mL]	MIC K. pneumoniae NCTC418 [16, 21] [µg/mL]	MIC P. aeruginosa PAO1 [17, 20] [µg/mL]	MIC P. aeruginosa PAO1 [17, 21] [µg/mL]	further results
CC(C)C[C@H](NC(=O)[C@H](CC(C)C)NC(=O)[C@H](CC(C)C)NC(=O)[C@H](CCCCN)NC(=O)[C@H](CC(C)C)NC(=O)[C@H](CC(C)C)NC(=O)[C@H](CCCCN)NC(=O)[C@H](CC(C)C)NC(=O)[C@H](CC(C)C)NC(=O)[C@H](CCCCN)NC(=O)[C@@H](N)CCCCN)C(N)=O [ln65]	>64	2 (≈ 1.51 µM)	2 to 4	3 (≈ 2.27 µM)	4 (≈ 3.03 µM)	32 (≈ 24.2 µM)	4 (≈ 3.03 µM)	32 (≈ 24.2 µM)	2 (≈ 1.51 µM)	2 (≈ 1.51 µM)	2 (≈ 1.51 µM)	27 ± 5.4	20 ± 0.9	2 to 4	3 (≈ 2.27 µM)	4 (≈ 3.03 µM)	4 (≈ 3.03 µM)	4 (≈ 3.03 µM)	2 to 4	3 (≈ 2.27 µM)	MIC B. cenocepacia [1]: > 64 µg/mL; MIC ZEM9A [8]: 4 µg/mL (≈ 3.03 µM); MIC S. aureus COL MRSA [18]: 4 µg/mL (≈ 3.03 µM); MIC S. aureus COL [18]: 4 µg/mL (≈ 3.03 µM); MIC S. aureus Newman [19]: 2 µg/mL (≈ 1.51 µM); MIC S. aureus Newmann [19]: 2 µg/mL (≈ 1.51 µM)
CC(C)C[C@H](NC(=O)[C@H](CC(C)C)NC(=O)[C@H](CC(C)C)NC(=O)[C@H](CCCCN)NC(=O)[C@H](CC(C)C)NC(=O)[C@H](CC(C)C)NC(=O)[C@H](CCCCN)NC(=O)[C@H](CC(C)C)NC(=O)[C@H](CC(C)C)NC(=O)[C@@H](CCCCN)NC(=O)[C@@H](N)CCCCN)C(N)=O [HP1]	>64	2 (≈ 1.51 µM)	2 (≈ 1.51 µM)	2 (≈ 1.51 µM)	2 (≈ 1.51 µM)	64 (≈ 48.4 µM)	4 (≈ 3.03 µM)	32 (≈ 24.2 µM)	8 (≈ 6.05 µM)	4 (≈ 3.03 µM)	2 (≈ 1.51 µM)	42.9 ± 2.6	2.7 ± 2.4	4 (≈ 3.03 µM)	4 (≈ 3.03 µM)	2 (≈ 1.51 µM)	4 to 8	6 (≈ 4.54 µM)	4 (≈ 3.03 µM)	4 (≈ 3.03 µM)	MIC ZEM9A [8]: 4 µg/mL (≈ 3.03 µM); MIC S. aureus COL MRSA [18]: 2 µg/mL (≈ 1.51 µM); MIC S. aureus COL [18]: 2 µg/mL (≈ 1.51 µM); MIC S. aureus Newman [19]: 2 µg/mL (≈ 1.51 µM); MIC S. aureus Newmann [19]: 2 µg/mL (≈ 1.51 µM)
CC(C)C[C@H](NC(=O)[C@H](CC(C)C)NC(=O)[C@H](CC(C)C)NC(=O)[C@@H](CCCCN)NC(=O)[C@H](CC(C)C)NC(=O)[C@H](CC(C)C)NC(=O)[C@@H](CCCCN)NC(=O)[C@H](CC(C)C)NC(=O)[C@H](CC(C)C)NC(=O)[C@@H](CCCCN)NC(=O)[C@H](N)CCCCN)C(N)=O [ln69, kkLLkLLkLLL]	>64	4 (≈ 3.03 µM)	2 (≈ 1.51 µM)	2 (≈ 1.51 µM)	2 (≈ 1.51 µM)	32 (≈ 24.2 µM)	4 (≈ 3.03 µM)	16 (≈ 12.1 µM)	4 (≈ 3.03 µM)	2 (≈ 1.51 µM)	4 (≈ 3.03 µM)	45 ± 8.9	21 ± 3.3	2 to 4	3 (≈ 2.27 µM)	4 (≈ 3.03 µM)	8 (≈ 6.05 µM)	8 (≈ 6.05 µM)	8 (≈ 6.05 µM)	8 (≈ 6.05 µM)	MIC B. cenocepacia [1]: > 64 µg/mL; MIC ZEM9A [8]: 8 µg/mL (≈ 6.05 µM); MIC S. aureus COL MRSA [18]: 16 µg/mL (≈ 12.1 µM); MIC S. aureus COL [18]: 16 µg/mL (≈ 12.1 µM); MIC S. aureus Newman [19]: 8 µg/mL (≈ 6.05 µM); MIC S. aureus Newmann [19]: 8 µg/mL (≈ 6.05 µM)
CC(C)C[C@H](NC(=O)[C@H](CC(C)C)NC(=O)[C@H](CC(C)C)NC(=O)[C@H](CCCCN)NC(=O)[C@H](CC(C)C)NC(=O)[C@H](CC(C)C)NC(=O)[C@@H](CCCCN)NC(=O)[C@H](CC(C)C)NC(=O)[C@H](CC(C)C)NC(=O)[C@@H](CCCCN)NC(=O)[C@@H](N)CCCCN)C(N)=O [HP3, KkLLkLLKLLL]	>64	4 (≈ 3.03 µM)	4 (≈ 3.03 µM)	4 (≈ 3.03 µM)	2 (≈ 1.51 µM)	32 (≈ 24.2 µM)	8 (≈ 6.05 µM)	32 (≈ 24.2 µM)	4 (≈ 3.03 µM)	4 (≈ 3.03 µM)	4 (≈ 3.03 µM)	69 ± 2.6	5.4 ± 4.4	2 (≈ 1.51 µM)	2 (≈ 1.51 µM)	2 (≈ 1.51 µM)	8 (≈ 6.05 µM)	8 (≈ 6.05 µM)	4 (≈ 3.03 µM)	4 (≈ 3.03 µM)	MIC B. cenocepacia [1]: > 64 µg/mL; MIC S. aureus COL MRSA [18]: 2 to 4 µg/mL; MIC S. aureus COL [18]: 3 µg/mL (≈ 2.27 µM); MIC S. aureus Newman [19]: 2 µg/mL (≈ 1.51 µM); MIC S. aureus Newmann [19]: 2 µg/mL (≈ 1.51 µM)
